Values of other authors in patent publication US20110092493A1, “Dose-controlled transdermal promethazine compositions and methods of use” (priority 2008, published 2011).
Counter-ions that a name gives are not always drawn. Like-named read-outs stand apart in the source and are kept apart here.

Tests used:
[1] = not given; remark: listed apart in the source
[2] = 50 mg applied to the wrist in topical pluronic lecithin organogel, 15 healthy volunteers
[3] = following intramuscular injection
[4] = oral administration
[5] = not given; remark: listed apart in the source
[6] = both 50 mg suppository treatments (generic, brand-name) vs oral syrup (50 mg)
[7] = overall, most common adverse events

differences in AUC0-24 (50 mg suppository treatments vs oral syrup (50 mg)) | maximum promethazine concentration compared with oral syrup [6] | time to maximum promethazine concentration compared with oral syrup [6] | coefficient of variation for the area under the plasma concentration-versus-time curve (AUC) ([1]; 50 mg suppository) | mean AUC from 0 to 24 hours (AUC0-24) ([1]; 50 mg suppository) [ng·h/mL] | coefficient of variation for the area under the plasma concentration-versus-time curve (AUC) ([1]; oral syrup (50 mg)) | mean AUC from 0 to 24 hours (AUC0-24) ([1]; oral syrup (50 mg)) [ng·h/mL] | drowsiness, % of subjects [2] [%] | fraction of dose absorbed ([4]; on average) [%] | absolute bioavailability ([4]; limited by first-pass clearance) [%] | SMILES | sedation, % of subjects [2] [%] | plasma levels associated with adverse effects [3] [ng/mL] | adverse event: somnolence ([5]; 25 mg suppository) [%] | adverse event: somnolence ([5]; 50 mg oral) [%] | adverse event: somnolence ([5]; 50 mg suppository) [%] | adverse event: headache [5, 7] [%] | adverse event: somnolence [5, 7] [%]
no significant differences | lower | longer |  |  |  |  |  |  |  | CC(CN1c2ccccc2Sc2ccccc21)N(C)C (centres unmarked) [promethazine hydrochloride] |  |  |  |  |  |  | 
 |  |  | greater than 84% | 168 | greater than 84% | 268 | 73 | 88 | 25 | CC(CN1c2ccccc2Sc2ccccc21)N(C)C (centres unmarked) [promethazine] | 50 | 48 | 5 | 22 | 17 | 28 | 35
